According to patent US20260184662A1, “COMPOSITE OF ACID AND SALT, AND PREPARATION METHOD THEREFOR” (NANJING NUTRABUILDING BIO-TECH CO., LTD., priority 2022, published 2026):
Where two headings read alike, the source gives them in different places.

Legend:
[1] = Determination of moisture contents with KF moisture meter at different time points; format: physicochemical; conditions: temperature 23° C., humidity 92.5%
Source text: (§1) For R-3-hydroxybutyric acid, potassium R-3-hydroxybutyrate, mixture of R-3-hydroxybutyric acid and potassium R-3-hydroxybutyrate, and R-3-hydroxybutyric acid·potassium R-3-hydroxybutyrate complex of Example 1, under a certain condition, KF moisture meter was used to determine the moisture contents at different time points.
as §1, with “3-hydroxybutyric” for “R-3-hydroxybutyric”, “3-hydroxybutyrate,” for “R-3-hydroxybutyrate,”, “3-hydroxybutyrate” for “R-3-hydroxybutyrate”, “7,” for “1,”
as §1, with “S-3-hydroxybutyric” for “R-3-hydroxybutyric”, “S-3-hydroxybutyrate,” for “R-3-hydroxybutyrate,”, “S-3-hydroxybutyrate” for “R-3-hydroxybutyrate”, “13,” for “1,”
as §1, with “calcium” for “potassium”, “acid·calcium” for “acid·potassium”, “19,” for “1,”
(§2) For 3-hydroxybutyric acid, calcium 3-hydroxybutyrate, mixture of 3-hydroxybutyric acid and calcium 3-hydroxybutyrate, and 3-hydroxybutyric acid·calcium 3-hydroxybutyrate complex of Example 25, under a certain condition, KF moisture meter was used to determine the moisture contents at different time points.
as §2, with “S-3-hydroxybutyric” for “3-hydroxybutyric”, “S-3-hydroxybutyrate,” for “3-hydroxybutyrate,”, “S-3-hydroxybutyrate” for “3-hydroxybutyrate”, “31,” for “25,”
as §1, with “magnesium” for “potassium”, “acid·magnesium” for “acid·potassium”, “37,” for “1,”
as §2, with “magnesium” for “calcium”, “acid·magnesium 3-hydroxy butyrate” for “acid·calcium 3-hydroxybutyrate”, “43,” for “25,”
For S-3-hydroxybutyric acid, magnesium S-3-hydroxybutyrate, mixture of S-3-hydroxybutyric acid and magnesium S-3-hydroxybutyrate, and S-3-hydroxybutyric acid·magnesium S-3-hydroxybutyrate complex of Example 49, under a certain condition, KF moisture meter was used to determine the moisture contents at different time points.
(§3) For R-3-hydroxypentanoic acid, sodium R-3-hydroxypentanoate, mixture of R-3-hydroxypentanoic acid and sodium R-3-hydroxypentanoate, and R-3-hydroxypentanoic acid·sodium R-3-hydroxypentanoate complex of Example 55, under a certain condition, KF moisture meter was used to determine the moisture contents at different time points.
as §3, with “3-hydroxypentanoic” for “R-3-hydroxypentanoic”, “3-hydroxypentanoate,” for “R-3-hydroxypentanoate,”, “3-hydroxypentanoate” for “R-3-hydroxypentanoate”, “61,” for “55,”
as §3, with “S-3-hydroxypentanoic” for “R-3-hydroxypentanoic”, “S-3-hydroxypentanoate,” for “R-3-hydroxypentanoate,”, “S-3-hydroxypentanoate” for “R-3-hydroxypentanoate”, “67,” for “55,”

[2] = Stability of complexes at 30-80° C.; format: physicochemical
Source text: For R-3-hydroxybutyric acid, potassium R-3-hydroxybutyrate, mixture of R-3-hydroxybutyric acid and potassium R-3-hydroxybutyrate, and R-3-hydroxybutyric acid·potassium R-3-hydroxybutyrate complex of Example 1, […]
For 3-hydroxybutyric acid, potassium 3-hydroxybutyrate, mixture of 3-hydroxybutyric acid and potassium 3-hydroxybutyrate, and 3-hydroxybutyric acid·potassium 3-hydroxybutyrate complex of Example 7, […]
For S-3-hydroxybutyric acid, potassium S-3-hydroxybutyrate, mixture of S-3-hydroxybutyric acid and potassium S-3-hydroxybutyrate, and S-3-hydroxybutyric acid·potassium S-3-hydroxybutyrate complex of Example 13, […]
For R-3-hydroxybutyric acid, calcium R-3-hydroxybutyrate, mixture of R-3-hydroxybutyric acid and calcium R-3-hydroxybutyrate, and R-3-hydroxybutyric acid·calcium R-3-hydroxybutyrate complex of Example 19, […]
For 3-hydroxybutyric acid, calcium 3-hydroxybutyrate, mixture of 3-hydroxybutyric acid and calcium 3-hydroxybutyrate, and 3-hydroxybutyric acid·calcium 3-hydroxybutyrate complex of Example 25, […]
For S-3-hydroxybutyric acid, calcium S-3-hydroxybutyrate, mixture of S-3-hydroxybutyric acid and calcium S-3-hydroxybutyrate, and S-3-hydroxybutyric acid·calcium S-3-hydroxybutyrate complex of Example 31, […]
For R-3-hydroxybutyric acid, magnesium R-3-hydroxybutyrate, mixture of R-3-hydroxybutyric acid and magnesium R-3-hydroxybutyrate, and R-3-hydroxybutyric acid·magnesium R-3-hydroxybutyrate complex of Example 37, […]
For 3-hydroxybutyric acid, magnesium 3-hydroxybutyrate, mixture of 3-hydroxybutyric acid and magnesium 3-hydroxybutyrate, and 3-hydroxybutyric acid·magnesium 3-hydroxybutyrate complex of Example 43, […]
For S-3-hydroxybutyric acid, magnesium S-3-hydroxybutyrate, mixture of S-3-hydroxybutyric acid and magnesium S-3-hydroxybutyrate, and S-3-hydroxybutyric acid·magnesium S-3-hydroxybutyrate complex of Example 49, […]
For R-3-hydroxypentanoic acid, sodium R-3-hydroxypentanoate, mixture of R-3-hydroxypentanoic acid and sodium R-3-hydroxypentanoate, and R-3-hydroxypentanoic acid·sodium R-3-hydroxypentanoate complex of Example 55, […]
For 3-hydroxypentanoic acid, sodium 3-hydroxypentanoate, mixture of 3-hydroxypentanoic acid and sodium 3-hydroxypentanoate, and 3-hydroxypentanoic acid·sodium 3-hydroxypentanoate complex of Example 61, […]
For S-3-hydroxypentanoic acid, sodium S-3-hydroxypentanoate, mixture of S-3-hydroxypentanoic acid and sodium S-3-hydroxypentanoate, and S-3-hydroxypentanoic acid·sodium S-3-hydroxypentanoate complex of Example 67, […]

Row | Stability [2] | Compound | moisture content (%) ([1]; 30 min) | moisture content (%) ([1]; 1 h) | moisture content (%) ([1]; 2 h) | moisture content (%) ([1]; 4 h) | moisture content (%) ([1]; 6 h) | moisture content (%) ([1]; 7 h) | moisture content (%) ([1]; 11 h) | moisture content (%) ([1]; 22 h) | Stability ([2]; 30° C.) | Stability ([2]; 40° C.) | Stability ([2]; 50° C.) | Stability ([2]; 60° C.) | Stability ([2]; 80° C.) | Stability ([2]; 70° C.)
1 | – | C[C@@H](O)CC(=O)O.C[C@@H](O)CC(=O)[O-].C[C@@H](O)CC(=O)[O-].[Ca+2] [R-3-hydroxybutyric acid·calcium R-3-hydroxybutyrate] | 0.54% | 1.02% | 1.96% | 3.26% | 4.79% | 5.39% | 8.65% | 14.45% | unchanged | unchanged | unchanged | unchanged | melted | –
2 | – | C[C@@H](O)CC(=O)O.C[C@@H](O)CC(=O)[O-].C[C@@H](O)CC(=O)[O-].[Mg+2] [R-3-hydroxybutyric acid·magnesium R-3-hydroxybutyrate] | 0.57% | 0.92% | 1.76% | 3.16% | 4.59% | 5.69% | 8.65% | 14.45% | unchanged | unchanged | unchanged | unchanged | melted | –
3 | – | C[C@@H](O)CC(=O)O.C[C@@H](O)CC(=O)[O-].[K+] [R-3-hydroxybutyric acid·potassium R-3-hydroxybutyrate] | 0.64% | 1.24% | 1.89% | 3.66% | 5.89% | 6.78% | 9.77% | 19.45% | unchanged | unchanged | unchanged | unchanged | melted | –
4 | unchanged | CC[C@@H](O)CC(=O)O.CC[C@@H](O)CC(=O)[O-].[Na+] [R-3-hydroxypentanoic acid·sodium R-3-hydroxypentanoate] | 0.45% | 0.85% | 1.63% | 2.72% | 4.08% | 4.49% | 7.21% | 14.54% | – | – | – | – | – | –
5 | – | C[C@H](O)CC(=O)O [S-3-hydroxybutyric acid] | 1.23% | 2.28% | 4.05% | 6.32% | 9.53% | 10.62% | 17.08% | 32.95% | unchanged | – | melted | melted | melted | melted
6 | – | C[C@H](O)CC(=O)O.C[C@H](O)CC(=O)[O-].C[C@H](O)CC(=O)[O-].[Ca+2] [S-3-hydroxybutyric acid·calcium S-3-hydroxybutyrate] | 0.52% | 0.98% | 1.88% | 3.05% | 4.47% | 5.22% | 8.41% | 13.98% | unchanged | unchanged | unchanged | unchanged | melted | –
7 | – | C[C@H](O)CC(=O)O.C[C@H](O)CC(=O)[O-].C[C@H](O)CC(=O)[O-].[Mg+2] [S-3-hydroxybutyric acid·magnesium S-3-hydroxybutyrate] | 0.58% | 0.98% | 1.79% | 3.16% | 4.58% | 5.64% | 8.86% | 14.74% | unchanged | unchanged | unchanged | unchanged | melted | –
8 | – | C[C@H](O)CC(=O)O.C[C@H](O)CC(=O)[O-].[K+] [S-3-hydroxybutyric acid·potassium S-3-hydroxybutyrate] | 0.72% | 1.34% | 196% | 3.72% | 5.99% | 6.82% | 9.83% | 18.28% | unchanged | unchanged | unchanged | unchanged | melted | –
9 | unchanged | CC[C@H](O)CC(=O)O.CC[C@H](O)CC(=O)[O-].[Na+] [S-3-hydroxypentanoic acid·sodium S-3-hydroxypentanoate] | 0.59% | 1.15% | 1.54% | 2.73% | 3.99% | 4.43% | 7.03% | 14.11% | – | – | – | – | – | –
10 | unchanged | CCC(O)CC(=O)[O-].[Na+] (stereo not shown) [Sodium 3-hydroxypentanoate, sodium 3-hydroxypentanoate] | 0.96% | 1.83% | 3.02% | 4.46% | 6.28% | 6.96% | 10.72% | 20.79% | – | – | – | – | – | –
11 | unchanged | CC[C@@H](O)CC(=O)[O-].[Na+] [Sodium R-3-hydroxypentanoate, sodium R-3-hydroxypentanoate] | 0.87% | 1.68% | 2.83% | 4.36% | 6.13% | 6.70% | 10.57% | 20.57% | – | – | – | – | – | –
